“And” between values parts separate entries of the source, which are not always exact repeats. Identical values can stand only once.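 Cultured in 96-well plates, cells were exposed to test compound for 48 hours across five concentrations. The concentration for 50% growth inhibition is given as GI50.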 The source made the active and inactive calls. Rule as the data show it: active = GI50 up to about 1.1 µM and inactive = higher.

Test systems include A498; A549; ACHN; EKVX; HCT-116; K562; KM12; LOX IMVI; MCF7; NCI-H226; NCI-H522; OVCAR-8; RXF 393; SF-295; SK-MEL-2; SNB-19; SNB-75; SW-620; TK-10; SR.
Test in all cases: NCI-60 cell line screen, 48 h

Regarding `CO/C(N)=C(C#N)/N=C/c1cccs1`, the GI50 in the assay on A498 was 33.2 µM (inactive); in the assay with A549 it was > 100 µM (inactive); in the assay on ACHN it was > 100 µM (inactive); with EKVX it was 42.4 µM (inactive); in the assay with HCT-116 it was 42.2 µM (inactive); in the assay on K562 it was 42.2 µM (inactive). Also, the GI50 with KM12 was > 100 µM (inactive); in the assay on LOX IMVI it was 42.6 µM (inactive); with MCF7 it was 24.4 µM (inactive); with NCI-H226, > 100 µM (inactive); in the assay with NCI-H522, 18.4 µM (inactive); in the assay with OVCAR-8, > 100 µM (inactive). The GI50 in the assay with RXF 393 was > 100 µM (inactive); in the assay on SF-295 it was > 100 µM (inactive); in the assay on SK-MEL-2, > 100 µM (inactive); in the assay with SNB-19 it was > 100 µM (inactive); in the assay with SNB-75, 73.5 µM (inactive); in the assay on SW-620, 68.1 µM (inactive). In addition, the GI50 in the assay with TK-10 was > 100 µM (inactive).
As to `N#Cc1c(Cl)c2cc([N+](=O)[O-])ccc2n2c1nc1ccccc12`, the GI50 in the assay with A498 was 25.6 µM (inactive); in the assay with A549, 35.8 µM (inactive); with ACHN, 4.29 µM (inactive); in the assay on EKVX it was 15.8 µM (inactive); with HCT-116, 3.17 µM (inactive); in the assay with K562 it was 1.85 µM (inactive). Moreover, the GI50 in the assay with KM12 is 9.91 µM (inactive); in the assay on LOX IMVI it was 1.87 µM (inactive); in the assay with MCF7 it was 1.17 µM (inactive); in the assay on NCI-H226, 10.6 µM (inactive); in the assay on NCI-H522, 2.54 µM (inactive); in the assay on OVCAR-8 it was 3.21 µM (inactive). In addition, the GI50 was 2.38 µM (inactive) in the assay with RXF 393; 26.8 µM (inactive) in the assay with SF-295; 15.5 µM (inactive) in the assay with SK-MEL-2; 13.6 µM (inactive) in the assay with SNB-19; 8.81 µM (inactive) with SNB-75; 2.26 µM (inactive) in the assay with SW-620. The GI50 with TK-10 was 3.81 µM (inactive).
Take `CC(C)n1c2c(c3ccccc3c1=O)C(=O)c1ccccc1-2`: the GI50 in the assay on A498, with A549, with EKVX, with HCT-116, in the assay on K562 and with KM12 was > 100 µM (inactive) in each case. Also, the GI50 in the assay on LOX IMVI, with MCF7, with NCI-H226, in the assay with NCI-H522, in the assay with OVCAR-8 and with SF-295 was > 100 µM (inactive) each time. Moreover, the GI50 in the assay on SK-MEL-2, with SNB-19, in the assay with SNB-75, with SR, with SW-620 and in the assay on TK-10 was > 100 µM (inactive) throughout.
For the molecule `C=CCN1C(=O)C=C(c2ccccc2)n2ncc3cccc1c32`, the GI50 was 44.3 µM (inactive) with A498; > 100 µM (inactive) with A549; > 100 µM (inactive) in the assay with ACHN; 95.5 µM (inactive) in the assay with EKVX; > 100 µM (inactive) in the assay on HCT-116; 47.8 µM (inactive) in the assay on KM12. The GI50 in the assay with LOX IMVI, in the assay on MCF7, in the assay with NCI-H226, with NCI-H522, with OVCAR-8 and with SF-295 was > 100 µM (inactive) each time. Further, the GI50 in the assay on SK-MEL-2, in the assay with SNB-19, with SR, in the assay on SW-620 and in the assay with TK-10 was > 100 µM (inactive) each time.
Turning to `CCOC(=O)c1c(-c2ccc(Cl)cc2)c(C#N)c(=S)n(C2OC(COC(C)=O)C(OC(C)=O)C(OC(C)=O)C2OC(C)=O)c1-c1ccccc1` (stereo not drawn), the GI50 in the assay with A549, in the assay with ACHN, with HCT-116, with K562, with KM12 and with LOX IMVI was > 100 µM (inactive) in each case. Moreover, the GI50 with MCF7 was > 100 µM (inactive); with RXF 393 it was > 100 µM (inactive); in the assay with SF-295 it was > 100 µM (inactive); in the assay on SK-MEL-2, > 100 µM (inactive); in the assay with SNB-19, > 100 µM (inactive); in the assay on SNB-75 it was 21.6 µM (inactive). In addition, the GI50 in the assay with SR, in the assay with SW-620 and in the assay on TK-10 was > 100 µM (inactive) each time.
Turning to `COc1ccc2c(c1)CN1C(=N2)CSC1c1cc([N+](=O)[O-])ccc1Cl` (stereo not drawn), the GI50 in the assay on A549 was 33.2 µM (inactive); with ACHN, 44.7 µM (inactive); in the assay with EKVX, 23.6 µM (inactive); with HCT-116, 27.2 µM (inactive); with K562 it was 10.8 µM (inactive); in the assay with KM12 it was 28.1 µM (inactive). In addition, the GI50 with LOX IMVI is 31.3 µM (inactive); in the assay with MCF7, 28.2 µM (inactive); in the assay with NCI-H226 it was 42 µM (inactive); with NCI-H522, 32.3 µM (inactive); in the assay with OVCAR-8, 48.8 µM (inactive); in the assay with RXF 393, 26.2 µM (inactive). Besides, the GI50 was 39.4 µM (inactive) in the assay with SF-295; 31.1 µM (inactive) with SK-MEL-2; 52.6 µM (inactive) in the assay on SNB-19; 52.1 µM (inactive) with SNB-75; 33.8 µM (inactive) with SR; 31 µM (inactive) in the assay with SW-620. Besides, the GI50 in the assay on TK-10 is > 100 µM (inactive).
Take `Brc1ccc(-c2[nH]c3ccccc3c2/C=N\Nc2ccc(-c3nc4ccccc4[nH]3)cc2)cc1`: the GI50 in the assay on A549, in the assay with ACHN, in the assay on HCT-116, in the assay on K562, in the assay with KM12 and with LOX IMVI was < 0.01 µM (active) throughout. In addition, the GI50 in the assay with MCF7 is < 0.0171 µM (active); with NCI-H226, < 0.01 µM (active); in the assay on NCI-H522, < 0.01 µM (active); in the assay with OVCAR-8 it was < 0.01 µM (active); in the assay with RXF 393, < 0.01 µM (active); in the assay with SF-295, < 0.01 µM (active). The GI50 in the assay with SK-MEL-2 was < 0.0139 µM (active); with SNB-19, < 0.01 µM (active); in the assay on SR, < 0.01 µM (active); with SW-620, < 0.01 µM (active).
As to `O=C(CN1CCNCCN(CC(=O)N2CCCCC2)CCNCC1)N1CCCCC1`, the GI50 in the assay on A498 was > 100 µM (inactive); with A549, 50.8 µM (inactive); in the assay on ACHN, > 100 µM (inactive); in the assay on EKVX, > 100 µM (inactive); in the assay on HCT-116, 42.5 µM (inactive); in the assay with K562, 40.3 µM (inactive). The GI50 with KM12 is 17.6 µM (inactive); in the assay on LOX IMVI it was > 100 µM (inactive); in the assay with MCF7, > 100 µM (inactive); in the assay with NCI-H226 it was > 100 µM (inactive); with NCI-H522 it was 40.6 µM (inactive); in the assay on OVCAR-8, > 100 µM (inactive). Besides, the GI50 with SF-295 is > 100 µM (inactive); in the assay on SK-MEL-2, > 100 µM (inactive); in the assay with SNB-19, > 100 µM (inactive); with SNB-75, > 100 µM (inactive); with SR, 34.4 µM (inactive); with SW-620, 58.2 µM (inactive). Further, in the assay on TK-10, the GI50 is > 100 µM (inactive).
For the molecule `[N-]=[N+]=CC(=O)OCC1NC(=O)C(COC(=O)C=[N+]=[N-])NC1=O` (stereo not drawn), the GI50 in the assay on A498, in the assay with A549, with ACHN, in the assay on EKVX, in the assay with HCT-116 and in the assay on K562 was > 100 µM (inactive) throughout. The GI50 in the assay on KM12, in the assay with LOX IMVI, with MCF7, in the assay on NCI-H226, in the assay on OVCAR-8 and in the assay with SF-295 was > 100 µM (inactive) throughout. Moreover, the GI50 with SK-MEL-2 is > 100 µM (inactive); in the assay with SNB-19, > 100 µM (inactive) and 72.1 µM (inactive); with SNB-75, > 100 µM (inactive); in the assay with SR, > 100 µM (inactive); in the assay on SW-620, > 100 µM (inactive); in the assay on TK-10, > 100 µM (inactive).
For the molecule `C1CSCCSCCSCCSCCS1`, the GI50 in the assay on A498, in the assay with A549, in the assay with ACHN, in the assay on EKVX, with HCT-116 and with K562 was > 100 µM (inactive) in each case. In addition, the GI50 in the assay on KM12, with LOX IMVI, in the assay with MCF7, in the assay on NCI-H226, in the assay on NCI-H522 and in the assay on OVCAR-8 was > 100 µM (inactive) throughout. The GI50 in the assay on RXF 393, in the assay on SF-295, in the assay on SK-MEL-2, with SNB-19, in the assay with SNB-75 and in the assay on SW-620 was > 100 µM (inactive) throughout. Further, the GI50 with TK-10 was > 100 µM (inactive).
For `CC1Oc2c(c(=O)oc3ccccc23)[C@@]1(C)CC1C[C@H](C)C(=O)O1` (stereo partly drawn), the GI50 with A498 was > 100 µM (inactive); in the assay on A549 it was 87.7 µM (inactive); with ACHN, 24.4 µM (inactive); in the assay with EKVX, > 100 µM (inactive); in the assay with HCT-116, 15.1 µM (inactive); with K562, 16.8 µM (inactive). The GI50 with KM12 is 44.6 µM (inactive); in the assay on LOX IMVI, 27.4 µM (inactive); with MCF7, 34.4 µM (inactive); in the assay on NCI-H226 it was > 100 µM (inactive); in the assay with NCI-H522 it was 19.5 µM (inactive); in the assay with OVCAR-8, 30.5 µM (inactive). For the same molecule, the GI50 with SF-295 was 63 µM (inactive); with SK-MEL-2 it was 25.9 µM (inactive); with SNB-19 it was 62.4 µM (inactive); in the assay with SNB-75, 24.7 µM (inactive); in the assay with SR it was > 10 µM (inactive); in the assay with SW-620, 26.9 µM (inactive). Further, the GI50 in the assay with TK-10 was > 100 µM (inactive).
